Reference: PubChem BioAssay AID248 (DTP/NCI, 2004)
Values joined by “and” are separate entries in the source; they are usually repeats but may differ in a detail not shown here. Identical values can stand only once. Inconclusive results and toxic doses are left out. Cut-off read from the data, not from the text of the source: active = T/C of 150% or more; inactive = T/C below 125%.

System: L1210 leukemia ip in BDF1 mice, survival T/C
Test: NCI In Vivo Anticancer Drug Screen. Data for tumor model L1210 Leukemia (intraperitoneal) in B6D2F1 (BDF1) mice
Conditions: endpoint: mean survival time, higher = longer survival
Procedure, shortened: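 Value reflects the ratio of survival in compound-treated mice to survival in vehicle-treated controls, with both groups carrying the same transplanted tumor.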

[1] = dose: 50.0 mg/kg/injection, schedule: Q01DX009 (ip), vehicle: saline
[2] = dose: 100.0 mg/kg/injection, schedule: Q01DX009 (ip), vehicle: saline
[3] = dose: 200.0 mg/kg/injection, schedule: Q01DX009 (ip), vehicle: saline
[4] = dose: 100.0 mg/kg/injection, schedule: Q01DX001 (ip), vehicle: Klucel (hydroxypropylcellulose) (HPC)
[5] = dose: 200.0 mg/kg/injection, schedule: Q01DX001 (ip), vehicle: Klucel (hydroxypropylcellulose) (HPC)
[6] = dose: 100.0 mg/kg/injection, schedule: Q04DX003 (ip), vehicle: Klucel (hydroxypropylcellulose) (HPC)
[7] = dose: 200.0 mg/kg/injection, schedule: Q04DX003 (ip), vehicle: Klucel (hydroxypropylcellulose) (HPC)
[8] = dose: 400.0 mg/kg/injection, schedule: Q04DX003 (ip), vehicle: Klucel (hydroxypropylcellulose) (HPC)
[9] = dose: 100.0 mg/kg/injection, schedule: Q04DX003 (ip), vehicle: saline
[10] = dose: 100.0 mg/kg/injection, schedule: Q04DX003 (ip), vehicle: saline with Tween-80
[11] = dose: 200.0 mg/kg/injection, schedule: Q04DX003 (ip), vehicle: saline with Tween-80
[12] = dose: 100.0 mg/kg/injection, schedule: Q01DX009 (ip), vehicle: Klucel (hydroxypropylcellulose) (HPC)
[13] = dose: 100.0 mg/kg/injection, schedule: Q04DX002 (ip), vehicle: saline with Tween-80
[14] = dose: 200.0 mg/kg/injection, schedule: Q04DX002 (ip), vehicle: saline with Tween-80
[15] = dose: 400.0 mg/kg/injection, schedule: Q01DX001 (ip), vehicle: Klucel (hydroxypropylcellulose) (HPC)
[16] = dose: 100.0 mg/kg/injection, schedule: Q01DX001 (ip), vehicle: saline
[17] = dose: 200.0 mg/kg/injection, schedule: Q01DX001 (ip), vehicle: saline

Measured: T/C

O=C(O)/C=C\C(=O)NNC(=O)/C=C\C(=O)O
inactive: dose: 50.0 mg/kg/injection, schedule: Q01DX009 (ip), vehicle: saline with Tween-80 101 % of control | [1] 100 % of control | dose: 100.0 mg/kg/injection, schedule: Q01DX009 (ip), vehicle: saline with Tween-80 96 % of control | [2] 100 % of control | dose: 200.0 mg/kg/injection, schedule: Q01DX009 (ip), vehicle: saline with Tween-80 104 % of control | [3] 93 % of control

Cc1ccc(S(=O)(=O)OCC(O)C2OCOC3COCOC32)cc1 (stereo not drawn)
inactive: [4] 97 % of control | [5] 101 % of control

CCCCCCCCCC1=NN(C2=NCCCC2)C(=O)C1
inactive: [6] 100 % of control | [7] 101 % of control | [8] 95 % of control

[Cl][Pt+2][Cl].[NH-]CCN1CC1
inactive: dose: 50.0 mg/kg/injection, schedule: Q04DX003 (ip), vehicle: saline 122 % of control | [9] 122 % of control

C1CCC2C(C1)CCCC2C1C2C3CCCCC3CCC2C2CCC3CCCCC3C21 (stereo not drawn)
inactive: [10] 91 % of control | [11] 91 % of control | dose: 400.0 mg/kg/injection, schedule: Q04DX003 (ip), vehicle: saline with Tween-80 88 % of control

CCCNC(C)CC(=O)OCC (stereo not drawn)
inactive: dose: 100.0 mg/kg/injection, schedule: Q01DX Z (ip), vehicle: methylcellulose (MC) 96 % of control | dose: 200.0 mg/kg/injection, schedule: Q01DX Z (ip), vehicle: methylcellulose (MC) 94 % of control

CCCCCS(=O)(=O)N1CCCC1
inactive: dose: 100.0 mg/kg/injection, schedule: Q04DX002 (ip), vehicle: Klucel (hydroxypropylcellulose) (HPC) 107 % of control | dose: 200.0 mg/kg/injection, schedule: Q04DX002 (ip), vehicle: Klucel (hydroxypropylcellulose) (HPC) 103 % of control | dose: 400.0 mg/kg/injection, schedule: Q04DX002 (ip), vehicle: Klucel (hydroxypropylcellulose) (HPC) 111 % of control

CCCCCCC(C(C(C)=O)C(C)=O)C(C(C)=O)C(C)=O
inactive: [10] 91 % of control | [11] 93 % of control

CCOC(=O)C1CCCC23CC(CC12)C(C)(C)C3Br (stereo not drawn)
inactive: [12] 100 % of control | [6] 94 % of control | dose: 200.0 mg/kg/injection, schedule: Q01DX009 (ip), vehicle: Klucel (hydroxypropylcellulose) (HPC) 94 % of control | [7] 95 % of control | dose: 400.0 mg/kg/injection, schedule: Q01DX009 (ip), vehicle: Klucel (hydroxypropylcellulose) (HPC) 94 % of control | [8] 103 % of control

ClCC1COC(CCl)O1 (stereo not drawn)
inactive: dose: 55.0 mg/kg/injection, schedule: Q01DX Z (ip), vehicle: saline 101 % of control | dose: 83.0 mg/kg/injection, schedule: Q01DX Z (ip), vehicle: saline 95 % of control | dose: 125.0 mg/kg/injection, schedule: Q01DX Z (ip), vehicle: saline 97 % of control

CCCCCCc1cc(N=Nc2ccc(S(=O)(=O)Nc3nnc(C)s3)cc2)c(O)cc1O
inactive: dose: 100.0 mg/kg/injection, schedule: Q01DX001 (ip), vehicle: carboxymethylcellulose (CMC) 98 % of control | dose: 200.0 mg/kg/injection, schedule: Q01DX001 (ip), vehicle: carboxymethylcellulose (CMC) 95 % of control

CC1CC(C)(C)C/C1=N/Nc1ccc([N+](=O)[O-])cc1[N+](=O)[O-] (stereo not drawn)
inactive: [13] 97 % of control | [14] 94 % of control | dose: 400.0 mg/kg/injection, schedule: Q04DX002 (ip), vehicle: saline with Tween-80 87 % of control

CCN(CC)C(=O)c1ccncc1
inactive: [1] 101 % of control | [2] 106 % of control and 88 % of control | [3] 97 % of control | dose: 400.0 mg/kg/injection, schedule: Q01DX009 (ip), vehicle: saline 111 % of control

CC1(C)OCC(C2OC(=O)C=C2OS(=O)(=O)O)O1 (stereo not drawn)
inactive: dose: 75.0 mg/kg/injection, schedule: Q01DX001 (ip), vehicle: saline 95 % of control

COc1c(O)cc2oc3cc(O)c(CC=C(C)C)c(O)c3c(=O)c2c1CC=C(C)C
inactive: [4] 97 % of control | [12] 96 % of control | [6] 105 % of control | [5] 97 % of control | [7] 105 % of control | [15] 98 % of control | [8] 100 % of control

O=C(O)C(=O)/C=C/c1cccc([N+](=O)[O-])c1
inactive: [16] 96 % of control | [2] 106 % of control | [17] 96 % of control | [3] 95 % of control | dose: 400.0 mg/kg/injection, schedule: Q01DX001 (ip), vehicle: saline 102 % of control

OCCOCCOCCN1CCN(C(c2ccccc2)c2ccc(Cl)cc2)CC1 (stereo not drawn)
inactive: dose: 12.5 mg/kg/injection, schedule: Q01DX009 (ip), vehicle: saline 95 % of control | dose: 25.0 mg/kg/injection, schedule: Q01DX009 (ip), vehicle: saline 100 % of control | [1] 101 % of control | [2] 95 % of control | [3] 91 % of control

N=C1c2ccccc2-c2nc3ccccc3c(=Nc3ccccc3C(=O)O)n21
inactive: dose: 100.0 mg/kg/injection, schedule: Q04DX002 (ip), vehicle: saline 89 % of control | dose: 200.0 mg/kg/injection, schedule: Q04DX002 (ip), vehicle: saline 86 % of control | dose: 400.0 mg/kg/injection, schedule: Q04DX002 (ip), vehicle: saline 89 % of control

COC(=O)c1cc(C)[nH]c(=O)c1CN
inactive: dose: 75.0 mg/kg/injection, schedule: Q01DX001 (ip), vehicle: water 104 % of control | dose: 150.0 mg/kg/injection, schedule: Q01DX001 (ip), vehicle: water 107 % of control

CCCCN(C)N=Nc1ccc(OCC(=O)NN)cc1
inactive: dose: 10.0 mg/kg/injection, schedule: Q01DX Z (ip), vehicle: carboxymethylcellulose (CMC) 93 % of control | dose: 15.0 mg/kg/injection, schedule: Q01DX Z (ip), vehicle: carboxymethylcellulose (CMC) 96 % of control | dose: 20.0 mg/kg/injection, schedule: Q01DX Z (ip), vehicle: carboxymethylcellulose (CMC) 91 % of control | dose: 30.0 mg/kg/injection, schedule: Q01DX Z (ip), vehicle: carboxymethylcellulose (CMC) 114 % of control | dose: 60.0 mg/kg/injection, schedule: Q01DX Z (ip), vehicle: carboxymethylcellulose (CMC) 95 % of control

CSc1nc(N(C)C)c2[nH]c(C)nc2n1
inactive: [16] 87 % of control | [17] 101 % of control

Br/C=C/C1CCCCC1
inactive: dose: 100.0 mg/kg/injection, schedule: Q01DX009 (ip), vehicle: acetone 104 % of control | [9] 105 % of control | dose: 200.0 mg/kg/injection, schedule: Q01DX009 (ip), vehicle: acetone 123 % of control | dose: 200.0 mg/kg/injection, schedule: Q04DX003 (ip), vehicle: saline 92 % of control | dose: 400.0 mg/kg/injection, schedule: Q01DX009 (ip), vehicle: acetone 107 % of control | dose: 400.0 mg/kg/injection, schedule: Q04DX003 (ip), vehicle: saline 92 % of control

CN(C)C(=O)N1CN(c2ccccc2)C2(CCN(CC3COc4ccccc4O3)CC2)C1=O (stereo not drawn)
inactive: [4] 101 % of control | [5] 97 % of control | [15] 106 % of control

CC1(C)C2CCC1(C)C(C(=O)C(F)(F)F)C2=O.CC1(C)C2CCC1(C)C(C(=O)C(F)(F)F)C2=O.CC1(C)C2CCC1(C)C(C(=O)C(F)(F)F)C2=O.[Eu] (stereo not drawn)
inactive: dose: 50.0 mg/kg/injection, schedule: Q04DX002 (ip), vehicle: saline with Tween-80 105 % of control | [13] 94 % of control | [14] 102 % of control
